Data set [1] deals with T1, hormone-sensitive lipase HSL (Rattus norvegicus, UniProt P15304).
T1 construct: Isolated rat fat cells are obtained from epididymal fatty tissue from untreated male rats; from tissue; host or cells: fat cells from epididymal fatty tissue of male Wistar rats
T1 sequence (P15304 301-1068 limits assumed): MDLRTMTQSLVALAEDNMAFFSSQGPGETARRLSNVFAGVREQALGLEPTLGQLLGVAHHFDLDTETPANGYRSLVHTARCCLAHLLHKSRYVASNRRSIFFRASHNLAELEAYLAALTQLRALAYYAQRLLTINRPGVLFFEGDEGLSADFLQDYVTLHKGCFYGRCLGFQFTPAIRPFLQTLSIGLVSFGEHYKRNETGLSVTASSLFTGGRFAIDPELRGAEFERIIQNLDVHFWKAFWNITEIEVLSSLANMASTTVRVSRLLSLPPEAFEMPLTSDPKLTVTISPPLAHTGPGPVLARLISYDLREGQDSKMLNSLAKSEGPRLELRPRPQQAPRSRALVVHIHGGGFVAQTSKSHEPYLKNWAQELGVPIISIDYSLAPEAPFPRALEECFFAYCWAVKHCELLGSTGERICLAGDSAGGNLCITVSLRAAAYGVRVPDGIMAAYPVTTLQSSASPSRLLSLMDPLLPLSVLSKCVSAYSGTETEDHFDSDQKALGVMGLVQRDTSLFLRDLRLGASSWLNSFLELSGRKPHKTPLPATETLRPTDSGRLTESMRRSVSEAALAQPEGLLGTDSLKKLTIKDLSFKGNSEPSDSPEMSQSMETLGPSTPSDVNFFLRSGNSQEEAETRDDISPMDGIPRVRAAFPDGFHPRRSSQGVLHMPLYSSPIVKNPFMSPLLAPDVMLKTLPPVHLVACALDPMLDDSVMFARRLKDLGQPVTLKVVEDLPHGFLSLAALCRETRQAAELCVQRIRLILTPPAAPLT
Description: HSL enzyme test system ([3H]trioleoylglycerol hydrolysis). Particulars: partially purified HSL from rat fat cells; [3H]trioleoylglycerol substrate; 37° C., 30 min. The format is biochemical. The source says:
The activity of the compounds of the formula 1 according to the invention was examined using the following enzyme test system:
Isolated rat fat cells are obtained from epididymal fatty tissue from untreated male rats (Wistar, 220-250 g) by collagenase treatment according to published processes (e.g. S. Nilsson et al., Anal. Biochem. 158, 1986, 399-407; G. Fredrikson et al., J. Biol. Chem. 256, 1981, 6311-6320; H. Tornquist et al., J. Biol. Chem. 251, 1976, 813-819). The fat cells from 10 rats are washed three times by flotation with 50 ml each of homogenization buffer ([…] tris/HCI, pH 7.4, 0.25 M sucrose, 1 mM EDTA, 1 mM DTT, 10 μg/ml of leupeptin, 10 μg/ml of antipain, 20 μg/ml of pepstatin) and finally taken up in 10 ml of homogenization buffer. The fat cells are homogenized in a Teflon-in-glass homogenizer (Braun-Melsungen) by 10 strokes at 1500 rpm and 15° C. The homogenizate is centrifuged (Sorvall SM24 tubes, 5000 rpm, 10 min, 4° C). The bottom layer between the overlying fatty layer and the pellet is removed and the centrifugation is repeated. The bottom layer resulting from this is centrifuged again (Sorvall SM24 tubes, 20,000 rpm, 45 min, 4° C). […] After incubation for 60 min at 4° C. (shake at intervals of 15 min), the batch is centrifuged (Sorvall SM24 tubes, 3000 rpm, 10 min, 4° C.). The supernatant is brought to pH 5.2 by addition of glacial acetic acid and incubated at 4° C. for 30 min. The precipitates are collected by centrifugation (Sorvall SS34, 12,000 rpm, 10 min, 4° C.) and suspended in 2.5 ml of 20 mM tris/HCl, pH 7.0, 1 mM EDTA, 65 mM NaCl, 13% sucrose, 1 mM DTT, 10 μg/ml of leupeptin/pepstatin/antipain. The suspension is dialyzed overnight at 4° C. against 25 mM tris/HCl, pH 7.4, 50% glycerol, 1 mM DTT, 10 μg/ml of leupeptin, pepstatin, antipain and then applied to a hydroxylapatite column (0.1 g per 1 ml of suspension, equilibrated with 10 mM potassium phosphate, pH 7.0, 30% glycerol, 1 mM DTT). The column is washed with four volumes of equilibration buffer at a flow rate of 20 to 30 ml/h. The HSL is eluted with a volume of equilibration buffer which contains 0.5 M potassium phosphate, then dialyzed (see above) and concentrated 5 to 10 times by ultrafiltration (Amicon Diaflo PM 10 filter) at 4° C. The partially purified HSL can be stored at −70° C. for 4 to 6 weeks.
For the preparation of the substrate, 25-50 μCi of [^3H]trioleoylglycerol (in toluene), 6.8 μMol of unlabeled trioleoylglycerol and 0.6 mg of phospholipids (phosphatidylcholine/phosphatidylinositol 3:1 w/v) are mixed, dried over N2 and then taken up in 2 ml of 0.1 M KPi (pH 7.0) by ultrasonic treatment (Branson 250, microtip, setting 1-2, 2×1 min at a 1 min interval). After addition of 1 ml KPi and fresh ultrasonic treatment (4×30 sec on ice at 30 sec intervals), 1 ml of 20% BSA (in KPi) is added (final concentration of trioleoylglycerol 1.7 mM). For the reaction, 100 μl of substrate solution are pipetted into 100 μl of HSL solution (HSL prepared as above, diluted in 20 mM KPi, pH 7.0, 1 mM EDTA, 1 mM DTT, 0.02% BSA, 20 μg/ml of pepstatin, 10 μg/ml of leupeptin) and incubated at 37° C. for 30 min. After addition of 3.25 ml of methanol/chloroform/heptane (10:9:7) and of 1.05 ml of 0.1 M K2CO3, 0.1 M boric acid (pH 10.5), the batch is well mixed and finally centrifuged (800×g, 20 min). After phase separation, one equivalent of the upper phase (1 ml) is taken and the radioactivity is determined by liquid scintillation measurement.
Substances are customarily tested in four independent batches. The inhibition of the enzymatic activity of the HSL by a test substance is determined by comparison with an uninhibited control reaction. The IC50 value is calculated by means of an inhibition curve using at least 10 concentrations of the test substance. For the analysis of the data, the software package GRAPHIT, Elsevier-BIOSOFT is used.

In general, IC50 refers to the concentration that inhibits the measured activity by half. A lower IC50 goes with higher potency. As to `COc1nn(-c2ccc(OC(F)(F)F)cc2)c(=O)o1` [Example 10, 3-(4-Trifluoromethoxyphenyl)-5-methoxy-1,3,4-oxad iazol-2-one], the IC50 in data set [1] came out at 6 µM. `COc1nn(-c2cccc(OC3CC(C)(C)CC(C)(C)C3)c2)c(=O)o1` [Example 38, 3-(3-(3,3,5,5-Tetramethylcyclohexyloxy)phenyl)-5-methoxy-1,3,4-oxadiazol-2-one]: in data set [1], the IC50 is below 1 µM.

Regarding `CCOc1nn(-c2cccc(OC(F)(F)F)c2)c(=O)o1` [Example 19, 3-(3-Trifluoromethoxyphenyl)-5-ethoxy-1,3,4-oxadiazol-2-one], in data set [1], half-maximal inhibition (IC50) required 5 µM. The same measure, in the same setting: the value for `CCCCOc1nn(-c2ccc(OC(F)(F)F)cc2)c(=O)o1` [Example 13, 3-(4-Trifluoromethoxyphenyl)-5-butoxy-1,3,4-oxadiazol-2-one] was 10 µM; that for `COc1nn(-c2cccc(Oc3ccccc3)c2)c(=O)o1` [Example 33, 3-(3-Phenoxyphenyl)-5-methoxy-1,3,4-oxadiazol-2-one] was 4 µM. In turn, `O=c1oc(OCc2ccccc2)nn1-c1ccc(OC(F)(F)F)cc1` [Example 14, 3-(4-Trifluoromethoxyphenyl)-5-benzyloxy-1,3,4-oxad iazol-2-one] showed a concentration for half-maximal inhibition (IC50) in data set [1] of 50 µM.

`CCOc1nn(-c2ccc(S(=O)(=O)N3CCOCC3)cc2)c(=O)o1` [Example 8, 3-(4-Morpholinosulfonylphenyl)-5-ethoxy-1,3,4-oxadiazol-2-one] registered an IC50 in data set [1] of 15 µM. In data set [1], `CCOc1nn(-c2ccc(OC3CC(C)(C)CC(C)(C)C3)cc2)c(=O)o1` [Example 16, 3-(4-(3,3,5,5-Tetramethylcyclohexyloxy)phenyl)-5-ethoxy-1,3,4-oxadiazol-2-one] came in with a 50% inhibitory concentration (IC50) of 2 µM.

`COc1nn(-c2ccc(S(=O)(=O)NC3CC(C)CC(C)(C)C3)cc2)c(=O)o1` (stereo not shown) [Example 15, 3-(4-(3,3,5-Trimethylcyclohexylaminosulfonyl)phenyl)-5-methoxy-1,3,4-oxadiazol-2-one] came in with an IC50 in data set [1] of 2 µM. As for `CCOc1nn(-c2ccc(OC(F)(F)F)cc2)c(=O)o1` [Example 11, 3-(4-Trifluoromethoxyphenyl)-5-ethoxy-1,3,4-oxadiazol-2-one], half-maximal inhibition in data set [1] (IC50) was put at 10 µM. In the case of `CCOc1nn(-c2cccc(OCc3ccccc3)c2)c(=O)o1` [Example 18, 3-(3-Benzyloxyphenyl)-5-ethoxy-1,3,4-oxadiazol-2-one], the IC50 in data set [1] was below 1 µM. `COc1nn(-c2ccc(C3CCCCC3)cc2)c(=O)o1` [Example 37, 3-(4-Cyclohexylphenyl)-5-methoxy-1,3,4-oxadiazol-2-one] had an IC50 in data set [1] of 3 µM. Regarding `CC(C)Oc1nn(-c2ccc(OC(F)(F)F)cc2)c(=O)o1` [Example 12, 3-(4-Trifluoromethoxyphenyl)-5-isopropoxy-1,3,4-oxadiazol-2-one], in data set [1], 10 µM corresponded to half-maximal inhibition (IC50). For the compound `COc1nn(-c2cccc(OCc3ccccc3)c2)c(=O)o1` [Example 17, 3-(3-Benzyloxyphenyl)-5-methoxy-1,3,4-oxadiazol-2-one], it took 2 µM to reach half-maximal inhibition in data set [1] (IC50).

`CCOc1nn(-c2cccc(Oc3ccccc3)c2)c(=O)o1` [Example 34, 3-(3-Phenoxyphenyl)-5-ethoxy-1,3,4-oxadiazol-2-one] registered a 50% inhibitory concentration (IC50) in data set [1] of 3 µM. For `COc1nn(-c2ccc(Oc3ccccc3)cc2)c(=O)o1` [Example 36, 3-(4-Phenoxyphenyl)-5-methoxy-1,3,4-oxadiazol-2-one], the IC50 in data set [1] was found to be 2 µM. Broadly, the melting point is the temperature, or range, at which the solid turns liquid. In turn, `CC(C)Oc1nn(-c2cccc(Oc3ccccc3)c2)c(=O)o1` [Example 35, 3-(3-Phenoxyphenyl)-5-isopropoxy-1,3,4-oxadiazol-2-one] displayed a melting point of 58 °C. For the same compound, in data set [1], the 50% inhibitory concentration (IC50) worked out at 3 µM. The compound `COc1nn(-c2ccc(-c3ccccc3)cc2)c(=O)o1` [Example 39, 3-(4-Phenylphenyl)-5-methoxy-1,3,4-oxadiazol-2-one] had an IC50 in data set [1] of 60 µM.

For the origin of these results see patent US6596742B1, “Substituted 3-phenyl-5-alkoxy-1,3,4-oxadiazol-2-ones, their preparation and their use in medicaments” (Aventis Pharma Deutschland GmbH, priority 1999, dated 2003).
